Assay results reported in paper PMC2947513, “Identification of an Archaeal Presenilin-Like Intramembrane Protease” (PLoS ONE, 2010).

Molecular target: T1, MCMJR1 (Methanoculleus marisnigri, UniProt A3CWV0)
T1 construct: gene Memar_1924; full-length; N-terminal His6-SUMO fusion cut off with ULP1; expressed in E. coli Rosetta (DE3) pLysS; detergent-purified; catalytic D162 and D220; eight predicted TMDs
T1 sequence (A3CWV0 1-301): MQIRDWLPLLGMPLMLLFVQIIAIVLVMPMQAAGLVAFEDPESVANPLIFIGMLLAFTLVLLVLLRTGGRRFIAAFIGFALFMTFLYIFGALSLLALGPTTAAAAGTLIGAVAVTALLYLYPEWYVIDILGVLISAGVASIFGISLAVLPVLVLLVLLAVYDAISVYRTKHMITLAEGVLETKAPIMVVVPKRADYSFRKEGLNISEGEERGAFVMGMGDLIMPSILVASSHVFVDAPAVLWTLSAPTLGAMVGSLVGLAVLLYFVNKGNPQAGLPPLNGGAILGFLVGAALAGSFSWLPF
Experiment: cleavage of Gurken-TMD (MBP chimera), anti-MBP western blot with densitometry
Type: biochemical
Details: transition-state analog; 0.8 µM enzyme, 2 h pre-incubation at 37 °C, 0.8 µM Gurken-TMD, 8 h; 31C at 10-100 µM; IC50 not given

complete inhibition of activity: ~ 100 µM
SMILES: COC(=O)C(NC(=O)C(CC(C)C)NC(=O)N(Cc1ccccc1)CC(O)C(Cc1ccccc1)NC(=O)OC(C)(C)C)C(C)C (stereo not shown) [31C]
